Results: PubChem BioAssay (NCI)
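Interpolation was linear, between the two tested concentrations surrounding the appropriate level; five concentrations were tested over 48 hours in 96-well plates. GI50 marks 50% less growth. The concentration for full growth arrest is given as TGI.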 Where a SMILES comes first, the peptide text is derived from it. [ ]: non-standard residue; d: D form. The star is where a group is joined. ξ: configuration not given here. ξD = NC(CC(=O)O)C(=O)O; Boc = CC(C)(C)OC(=O)*; Aib = CC(C)(N)C(=O)O; OtBu = CC(C)(C)O*

What was measured:
Assay in all cases: inhibition of tumour cell growth, NCI panel, 48 h
SK-OV-3 ovarian = test system: SK-OV-3 ovarian
MCF7 breast = test system: MCF7 breast
OVCAR-8 ovarian = test system: OVCAR-8 ovarian
OVCAR-5 ovarian = test system: OVCAR-5 ovarian
UACC-257 melanoma = test system: UACC-257 melanoma
OVCAR-3 ovarian = test system: OVCAR-3 ovarian
LOX IMVI melanoma = test system: LOX IMVI melanoma
SK-MEL-2 melanoma = test system: SK-MEL-2 melanoma
EKVX NSCLC = test system: EKVX NSCLC
CCRF-CEM leukemia = test system: CCRF-CEM leukemia
A549 NSCLC = test system: A549 NSCLC
RPMI-8226 leukemia = test system: RPMI-8226 leukemia
PC-3 prostate = test system: PC-3 prostate
ACHN renal = test system: ACHN renal
MDA-MB-435 = test system: MDA-MB-435
SK-MEL-5 melanoma = test system: SK-MEL-5 melanoma
786-0 renal = test system: 786-0 renal
NCI-H23 lung = test system: NCI-H23 lung
HOP-92 NSCLC = test system: HOP-92 NSCLC
RXF 393 renal = test system: RXF 393 renal
MDA-MB-231 breast = test system: MDA-MB-231 breast
UO-31 renal = test system: UO-31 renal
HCT-116 colon = test system: HCT-116 colon
HS 578T breast = test system: HS 578T breast
SF-268 CNS = test system: SF-268 CNS
COLO 205 colon = test system: COLO 205 colon
M14 melanoma = test system: M14 melanoma
KM12 colon = test system: KM12 colon
NCI-H522 lung = test system: NCI-H522 lung
NCI/ADR-RES ovarian = test system: NCI/ADR-RES ovarian
SNB-75 CNS = test system: SNB-75 CNS
SNB-19 CNS = test system: SNB-19 CNS
NCI-H460 lung = test system: NCI-H460 lung
HT29 colon = test system: HT29 colon
IGROV1 ovarian = test system: IGROV1 ovarian
NCI-H226 lung = test system: NCI-H226 lung
HCT-15 colon = test system: HCT-15 colon
OVCAR-4 ovarian = test system: OVCAR-4 ovarian
MOLT-4 leukemia = test system: MOLT-4 leukemia
DU-145 prostate = test system: DU-145 prostate
SF-295 CNS = test system: SF-295 CNS
SF-539 CNS = test system: SF-539 CNS
TK-10 renal = test system: TK-10 renal
U251 CNS = test system: U251 CNS
MALME-3M melanoma = test system: MALME-3M melanoma
A498 renal = test system: A498 renal
CAKI-1 renal = test system: CAKI-1 renal
SK-MEL-28 melanoma = test system: SK-MEL-28 melanoma
HOP-62 NSCLC = test system: HOP-62 NSCLC
T-47D breast = test system: T-47D breast
UACC-62 melanoma = test system: UACC-62 melanoma
SW-620 colon = test system: SW-620 colon
BT-549 breast = test system: BT-549 breast
K-562 leukemia = test system: K-562 leukemia
HL-60(TB) leukemia = test system: HL-60(TB) leukemia
HCC-2998 colon = test system: HCC-2998 colon
SN12C renal = test system: SN12C renal

COC(=O)C(C)(C)NC(=O)C(C)(C)NC(=O)C(CC(=O)OC(C)(C)C)NC(=O)OC(C)(C)C (stereo unspecified) (Boc-[ξD](OtBu)-[Aib]-[Aib]-OMe) showed a TGI (SK-OV-3 ovarian) of over 100 µM, a TGI (MCF7 breast) of over 100 µM and a TGI (OVCAR-8 ovarian) of over 100 µM. For the same molecule, the TGI (OVCAR-5 ovarian) was over 100 µM, the TGI (UACC-257 melanoma) was over 100 µM and the TGI (OVCAR-3 ovarian) was over 100 µM. The TGI (LOX IMVI melanoma) was over 100 µM, the TGI (SK-MEL-2 melanoma) was over 100 µM and the TGI (EKVX NSCLC) was over 100 µM. It also gave a TGI (CCRF-CEM leukemia) of over 100 µM, a TGI (A549 NSCLC) of over 100 µM and a TGI (RPMI-8226 leukemia) of over 100 µM. It also gave a TGI (PC-3 prostate) of over 100 µM, a TGI (ACHN renal) of over 100 µM and a TGI (MDA-MB-435) of over 100 µM. For the same molecule, the TGI (SK-MEL-5 melanoma) was over 100 µM, the TGI (786-0 renal) was over 100 µM and the TGI (NCI-H23 lung) was over 100 µM. It also gave a TGI (HOP-92 NSCLC) of over 100 µM, a TGI (RXF 393 renal) of over 100 µM and a TGI (MDA-MB-231 breast) of over 100 µM. The TGI (UO-31 renal) was over 100 µM, the TGI (HCT-116 colon) was over 100 µM and the TGI (HS 578T breast) was over 100 µM. It also gave a TGI (SF-268 CNS) of over 100 µM, a TGI (COLO 205 colon) of over 100 µM and a TGI (M14 melanoma) of over 100 µM. For the same molecule, the TGI (KM12 colon) was over 100 µM, the TGI (NCI-H522 lung) was over 100 µM and the TGI (NCI/ADR-RES ovarian) was over 100 µM. The TGI (SNB-75 CNS) was over 100 µM, the TGI (SNB-19 CNS) was over 100 µM and the TGI (NCI-H460 lung) was over 100 µM. The TGI (HT29 colon) was over 100 µM, the TGI (IGROV1 ovarian) was over 100 µM and the TGI (NCI-H226 lung) was over 100 µM. The TGI (HCT-15 colon) was over 100 µM, the TGI (OVCAR-4 ovarian) was over 100 µM and the TGI (MOLT-4 leukemia) was over 100 µM. The TGI (DU-145 prostate) was over 100 µM, the TGI (SF-295 CNS) was over 100 µM and the TGI (SF-539 CNS) was over 100 µM. For the same molecule, the TGI (TK-10 renal) was over 100 µM, the TGI (U251 CNS) was over 100 µM and the TGI (MALME-3M melanoma) was over 100 µM. For the same molecule, the TGI (A498 renal) was over 100 µM, the TGI (CAKI-1 renal) was over 100 µM and the TGI (SK-MEL-28 melanoma) was over 100 µM. It also gave a TGI (HOP-62 NSCLC) of over 100 µM, a TGI (T-47D breast) of over 100 µM and a TGI (UACC-62 melanoma) of over 100 µM. For the same molecule, the TGI (SW-620 colon) was over 100 µM, the TGI (BT-549 breast) was over 100 µM and the TGI (K-562 leukemia) was over 100 µM.
In the case of COc1ccc(OC)c(/C=C/C(=O)N/N=C/c2ccccc2)c1, the GI50 (SK-OV-3 ovarian) is reported as 12 µM, the TGI (SK-OV-3 ovarian) is reported as over 100 µM and the GI50 (MCF7 breast) is reported as 3.79 µM. For the same molecule, the TGI (MCF7 breast) was over 100 µM, the GI50 (OVCAR-8 ovarian) was 5.44 µM and the TGI (OVCAR-8 ovarian) was 94.6 µM. For the same molecule, the GI50 (OVCAR-5 ovarian) was 18 µM, the TGI (OVCAR-5 ovarian) was over 100 µM and the GI50 (UACC-257 melanoma) was 5.76 µM. It also gave a TGI (UACC-257 melanoma) of 33.6 µM, a GI50 (OVCAR-3 ovarian) of 3.15 µM and a TGI (OVCAR-3 ovarian) of over 100 µM. It also gave a GI50 (LOX IMVI melanoma) of 4.12 µM, a TGI (LOX IMVI melanoma) of over 100 µM and a GI50 (SK-MEL-2 melanoma) of 2.98 µM. For the same molecule, the TGI (SK-MEL-2 melanoma) was 9.32 µM, the GI50 (EKVX NSCLC) was 1.59 µM and the TGI (EKVX NSCLC) was 59.5 µM. It also gave a GI50 (CCRF-CEM leukemia) of 3.97 µM, a TGI (CCRF-CEM leukemia) of over 100 µM and a GI50 (A549 NSCLC) of 4.29 µM. The TGI (A549 NSCLC) was over 100 µM, the GI50 (RPMI-8226 leukemia) was 2.99 µM and the TGI (RPMI-8226 leukemia) was 9.96 µM. For the same molecule, the GI50 (PC-3 prostate) was 5.86 µM, the TGI (PC-3 prostate) was 52.1 µM and the GI50 (ACHN renal) was 9.66 µM. For the same molecule, the TGI (ACHN renal) was over 100 µM, the GI50 (MDA-MB-435) was 0.283 µM and the TGI (MDA-MB-435) was 1.98 µM. It also gave a GI50 (SK-MEL-5 melanoma) of 2.95 µM, a TGI (SK-MEL-5 melanoma) of 14.6 µM and a GI50 (HL-60(TB) leukemia) of 2.03 µM. For the same molecule, the TGI (HL-60(TB) leukemia) was 13.7 µM, the GI50 (786-0 renal) was 7 µM and the TGI (786-0 renal) was 72.5 µM. For the same molecule, the GI50 (NCI-H23 lung) was 5.4 µM, the TGI (NCI-H23 lung) was 87 µM and the GI50 (HOP-92 NSCLC) was 1.56 µM. It also gave a TGI (HOP-92 NSCLC) of 13.3 µM, a GI50 (RXF 393 renal) of 3.9 µM and a TGI (RXF 393 renal) of 26.6 µM. It also gave a GI50 (MDA-MB-231 breast) of 7.24 µM, a TGI (MDA-MB-231 breast) of over 100 µM and a GI50 (UO-31 renal) of 5.9 µM. For the same molecule, the TGI (UO-31 renal) was 85.5 µM, the GI50 (HCT-116 colon) was 2.64 µM and the TGI (HCT-116 colon) was 10.2 µM. For the same molecule, the GI50 (HS 578T breast) was 9.07 µM, the TGI (HS 578T breast) was over 100 µM and the GI50 (SF-268 CNS) was 7.56 µM. For the same molecule, the TGI (SF-268 CNS) was over 100 µM, the GI50 (COLO 205 colon) was 4.8 µM and the TGI (COLO 205 colon) was 35.1 µM. For the same molecule, the GI50 (M14 melanoma) was 2.16 µM, the TGI (M14 melanoma) was 6.77 µM and the GI50 (KM12 colon) was 0.834 µM. For the same molecule, the TGI (KM12 colon) was 3.75 µM, the GI50 (NCI-H522 lung) was 1.57 µM and the TGI (NCI-H522 lung) was 41.7 µM. It also gave a GI50 (NCI/ADR-RES ovarian) of 1.46 µM, a TGI (NCI/ADR-RES ovarian) of 4.29 µM and a GI50 (SNB-75 CNS) of 4.39 µM. The TGI (SNB-75 CNS) was 37.3 µM, the GI50 (SNB-19 CNS) was 4.12 µM and the TGI (SNB-19 CNS) was over 100 µM. For the same molecule, the GI50 (NCI-H460 lung) was 2.07 µM, the TGI (NCI-H460 lung) was 5.62 µM and the GI50 (HT29 colon) was 2.1 µM. For the same molecule, the TGI (HT29 colon) was over 100 µM, the GI50 (IGROV1 ovarian) was 1.51 µM and the TGI (IGROV1 ovarian) was over 100 µM. The GI50 (NCI-H226 lung) was 30.8 µM, the TGI (NCI-H226 lung) was over 100 µM and the GI50 (HCT-15 colon) was 3.62 µM. The TGI (HCT-15 colon) was over 100 µM, the GI50 (OVCAR-4 ovarian) was 14.3 µM and the TGI (OVCAR-4 ovarian) was over 100 µM. For the same molecule, the GI50 (MOLT-4 leukemia) was 4.45 µM, the TGI (MOLT-4 leukemia) was over 100 µM and the GI50 (SF-295 CNS) was 1 µM. For the same molecule, the TGI (SF-295 CNS) was 11.1 µM, the GI50 (SF-539 CNS) was 4.42 µM and the TGI (SF-539 CNS) was 25.1 µM. It also gave a GI50 (TK-10 renal) of 16.6 µM, a TGI (TK-10 renal) of over 100 µM and a GI50 (HCC-2998 colon) of 2.35 µM. It also gave a TGI (HCC-2998 colon) of 21 µM, a GI50 (U251 CNS) of 3.68 µM and a TGI (U251 CNS) of over 100 µM. For the same molecule, the GI50 (MALME-3M melanoma) was 2.12 µM, the TGI (MALME-3M melanoma) was over 100 µM and the GI50 (A498 renal) was 12 µM. For the same molecule, the TGI (A498 renal) was over 100 µM, the GI50 (CAKI-1 renal) was 0.443 µM and the TGI (CAKI-1 renal) was 6.66 µM. For the same molecule, the GI50 (SK-MEL-28 melanoma) was 8.89 µM, the TGI (SK-MEL-28 melanoma) was over 100 µM and the GI50 (HOP-62 NSCLC) was 4.95 µM. The TGI (HOP-62 NSCLC) was over 100 µM, the GI50 (SN12C renal) was 4.17 µM and the TGI (SN12C renal) was 39.9 µM. For the same molecule, the GI50 (T-47D breast) was 4.86 µM, the TGI (T-47D breast) was over 100 µM and the GI50 (UACC-62 melanoma) was 3.55 µM. For the same molecule, the TGI (UACC-62 melanoma) was 75.8 µM, the GI50 (SW-620 colon) was 1.5 µM and the TGI (SW-620 colon) was 6.23 µM. The GI50 (BT-549 breast) was 4.05 µM, the TGI (BT-549 breast) was 90.4 µM and the GI50 (K-562 leukemia) was 0.488 µM. For the same molecule, the TGI (K-562 leukemia) was over 100 µM.
